# Experiments:
# [1] = target: T1, CEF (Capping Enzyme of Flavivirus) (Dengue virus type 2, UniProt P14340); test: Competition with radiolabeled GTP for CEF, CEF-GTP complex assayed by UV-crosslinking; type: binding, Dengue virus type 2 (New Guinea)
# T1 construct: is a thirty-three kDa N-terminal domain of the RNA-dependent RNA polymerase; made in house; host or cells: E. coli (vector pQE30)
# Protocol: The invention can also be useful in methods for determining the inhibitory power of a biologically active compound acting as a competitive inhibitor of GTP comprising: • a) incubating CEF with radiolabeled GTP, • b) adding selected different concentrations of the biologically active compound, • c) assaying resulting radiolabeled CEF-GTP complex produced from the incubation, • d) quantifying an amount of radiolabeled CEF-GTP complex produced from the assay, • e) comparing the amount to a binding affinity constant of GTP to CEF, and • f) determining the inhibitory power of the biologically active compound.
# More particularly, the incubating step in the methods of the invention is conducted at about 52 μM of GTP. Selected different concentrations of GTP are about 0 μM, about 10 μM, about 20 μM, about 50 μM, about 100 μM, about 200 μM, about 300 μM, about 500 μM, and about 800 μM. Assaying in the methods of the invention comprises UV-crosslinking of α-^32P-GTP to CEF.
# The CEF-GTP complex is then assayed using UV-crosslinking as described above. If acyclovir 5′triphosphate competes with radiolabeled GTP for the CEF active-site, acyclovir 5′triphosphate will replace GTP in the active-site.
# [2] = target: T1, CEF (Capping Enzyme of Flavivirus); test: Competition with α-32P-GTP for covalent binding to CEF (no UV, gel electrophoresis/autoradiography); design: species or system Dengue virus type 2 (New Guinea); details: 0-1000 μM competitor, 10 min before α-32P-GTP, with magnesium
# Protocol: In the drawings, as noted above, FIGS. 1A and 1B are a pair of photographs of gel electrophoresis. […] 2 μg of CEF was incubated with 50 μM (1 μCi) of either α-^32P-GTP (lane 1, 2, 5, 6) or α-^32P-ATP (lanes 3, 4) in 50 mM Tris pH 7.6, 5 mM DTT in the presence (lane 1, 3-6)) or absence (lane 2) of 5 mM Mg^2+. The sample was cross-linked using UV irradiation (254 nm), boiled for 5 min, and subjected to denaturing gel electrophoresis. Products were analyzed and quantified using photostimulable plates and a FujiImager. Bacteriophage T4 DNA ligase served as a positive control (lane 5). The F25A variant of CEF was purified under the same conditions as those of wild-type CEF. Upper panels show the comassie-blue stained gels, and lower panels the corresponding autoradiographic analysis. […] CEF was incubated during 10 min with increasing concentrations of Ribavirin 5′-triphosphate (0-50-250-500-750-1000 μM, lanes 1- to 6, respectively) before addition of α-^32P-GTP to the reaction mixture and further incubation for 20 min. The mixture was boiled for 5 min, subjected to denaturing gel electrophoresis, and the gel analyzed and quantified as in panel A. Upper panels show the comassie-blue stained gels, and lower panels the corresponding autoradiographic analysis. Ribavirin: Ribavirin 5′-triphosphate; Lig: Bacteriophage T4 DNA ligase. […]
# [3] = target: T1, CEF (Capping Enzyme of Flavivirus); test: UV-crosslinking of α-32P-GTP (or α-32P-ATP) to CEF, direct binding; design: species or system Dengue virus type 2 (New Guinea)
# Protocol: In the drawings, as noted above, FIGS. 1A and 1B are a pair of photographs of gel electrophoresis. […] 2 μg of CEF was incubated with 50 μM (1 μCi) of either α-^32P-GTP (lane 1, 2, 5, 6) or α-^32P-ATP (lanes 3, 4) in 50 mM Tris pH 7.6, 5 mM DTT in the presence (lane 1, 3-6)) or absence (lane 2) of 5 mM Mg^2+. The sample was cross-linked using UV irradiation (254 nm), boiled for 5 min, and subjected to denaturing gel electrophoresis. Products were analyzed and quantified using photostimulable plates and a FujiImager. Bacteriophage T4 DNA ligase served as a positive control (lane 5). The F25A variant of CEF was purified under the same conditions as those of wild-type CEF. Upper panels show the comassie-blue stained gels, and lower panels the corresponding autoradiographic analysis. […] The mixture was boiled for 5 min, subjected to denaturing gel electrophoresis, and the gel analyzed and quantified as in panel A. Upper panels show the comassie-blue stained gels, and lower panels the corresponding autoradiographic analysis. […]
# The binding affinity constant of GTP to CEF can be easily determined using a fixed concentration of CEF and increasing concentrations of radiolabeled GTP as described in FIG. 1A. […]
compound,measurement,setting,value
Nc1nc2c(ncn2COCCOP(=O)(O)OP(=O)(O)OP(=O)(O)O)c(=O)[nH]1 [acyclovir 5′-triphosphate],Kd,"[1]; CEF first incubated with about 52 μM GTP, increasing competitor, read-out: relative binding affinity constant for binding to CEF",~79 µM
same,inhibition of the CEF enzyme (in words),[1]; CEF-acyclovir 5′-triphosphate binding assay,good inhibitor of the CEF enzyme
NC(=O)c1ncn([C@@H]2O[C@H](COP(=O)(O)OP(=O)(O)OP(=O)(O)O)[C@@H](O)[C@H]2O)n1 [Ribavirin 5′-triphosphate],effect on GTP-binding to CEF,[2],able to decrease GTP-binding to CEP
Nc1nc2c(ncn2[C@@H]2O[C@H](COP(=O)(O)OP(=O)(O)OP(=O)(O)O)[C@@H](O)[C@H]2O)c(=O)[nH]1 [GTP],Kd,"[3]; fixed CEF, increasing radiolabeled GTP, hyperbolic saturation, read-out: binding affinity constant Kd of GTP to CEF",52 µM
Nc1ncnc2c1ncn2[C@@H]1O[C@H](COP(=O)(O)OP(=O)(O)OP(=O)(O)O)[C@@H](O)[C@H]1O [α-^32P-ATP],labeling of CEF by radiolabeled nucleotide after UV irradiation,"[3]; 50 μM nucleotide, 2 μg CEF, UV 254 nm",unable to label CEF significantly

# Reference: patent US6949353B2, “Capping enzyme of flavivirus and utilization of this protein in a process to test drugs with antiviral properties” (priority 2001, dated 2005)
